According to US6869593B2, “Non-isotopic detection of osteoblastic activity in vivo using modified bisphosphonates” (Beth Israel Deaconess Medical Center, priority 2000, dated 2005):
Blank lines part the entries; values can stand above or below the molecule they belong to.

Key:
[1] = Competition of Pam78 binding to HA by unlabeled pamidronate; conditions: 80 nmol (800 μM) unlabeled pamidronate; 2.5 μM Pam78; 1.5 mg/ml HA; three hours
Protocol: For competition experiments, free pamidronate was pre-incubated in 100 μl NK buffer with 1.5 mg/ml (1.5 mM) HA for five minutes at room temperature with continuous vortexing. Pam78 was then added from a 20× stock solution to a final concentration of 2.5 μM. Incubation at 37° C. with continuous vortexing continued for three hours prior to filtration and measurement as described above.

[2] = Serum concentration after intravenous injection (plasma elimination); conditions: 2.6 nmol intravenous, tail vein
Protocol: Hairless 7 week old male nu/nu mice (Charles River Laboratories, Wilmington, Mass.; average weight 25 g) were anesthetized with 50 mg/kg i.p. pentobarbital. The lateral tail vein was visualized using a flashlight and 2.6 nmol of compound resuspended in 80 μl of phosphate buffered saline (PBS) was injected using a bent, 30 gauge, ½″ needle. For measurement of plasma concentration, the tip of the tail of an anesthetized animal was cut with a razor blade, and 75 μl of whole blood was milked, and collected with a capillary tube. After clotting and removal of cells by centrifugation, serum was diluted 1:10 in 50 mM Hepes, pH 7.4 and a wavelength scan from 400 nm to 850 nm was performed. Serum concentration was determined by peak height at 771 nm after subtraction of background (pre-injection serum), and correction for hemoglobin absorbance.

[3] = Kinetic binding to hydroxyapatite crystals; conditions: 5 μM compound, 37° C.
Protocol: In Vitro Hydroxyapatite Binding Experiments. For kinetic measurements of binding to HA, 5 μM Pam78 or the carboxylic acid of IRDye78 was added from a 20× stock solution to 100 μl NK buffer containing 1.5 mg/ml (1.5 mM) HA. Suspensions were continuously vortexed at 37° C. for the time indicated. Bound and unbound material was separated using a 0.2 μm filter in a 96-well format (Model MAGVN2210, Millipore, Bedford, Mass.), and the concentration of material in the filtrate was measured using the SPECTRAmax Gemini XS fluorescence microplate reader set for an excitation wavelength of 771 nm and an emission wavelength of 796 nm. Bound material was calculated by subtracting unbound compound from the total added to each reaction.

[4] = In vivo near-infrared fluorescence imaging of HA
Protocol: Compound Injection and Measurement of Serum Concentration. Hairless 7 week old male nu/nu mice (Charles River Laboratories, Wilmington, Mass.; average weight 25 g) were anesthetized with 50 mg/kg i.p. pentobarbital. The lateral tail vein was visualized using a flashlight and 2.6 nmol of compound resuspended in 80 μl of phosphate buffered saline (PBS) was injected using a bent, 30 gauge, ½″ needle.

[5] = Quantitation of skeletal uptake by rib fluorescence intensity
Protocol: However, we were able to estimate skeletal uptake by measuring fluorescence intensity of the ribs in the skinless animal. Calibration standards matching the geometry of the ribs were placed next to the animal and mean fluorescence intensities of each standard and the caudal three ribs on each side were measured.

[6] = Spectral measurements (absorbance, fluorescence); type: physicochemical
Protocol: Spectral Measurements. Absorbance measurements and scans were performed on a Model DU-600 spectrophotometer (Beckman, Fullerton, Calif.) using 1 μM of each compound in 20 mM N-ethylmorpholine (NEM), pH 7.4 and 150 mM KCl (NK buffer). Fluorescence measurements, and excitation/emission scans were performed on a SPECTRAmax Gemini XS microplate reader (Molecular Devices, Sunnyvale, Calif.) using Model 655076 black 96-well plates (Greiner, Lake Mary, Fla.), and […] of each compound in NK buffer. Curves were analyzed using SOFTmax PRO software (Molecular Devices, Sunnyvale, Calif.) and plotted using Prism3 for the Macintosh (GraphPad Software, Inc., San Diego, Calif.).

[7] = rats; cited from earlier work

inhibition of Pam78 binding to HA [1]: 90%
SMILES: NCCC(O)(P(=O)(O)O)P(=O)(O)O [pamidronate]

SMILES: CC1(C)C(/C=C/C2=C(Oc3ccc(CCC(=O)NCCC(O)(P(=O)([O-])O)P(=O)(O)O)cc3)C(=C\C=C3/N(CCCCS(=O)(=O)O)c4ccc(S(=O)(=O)O)cc4C3(C)C)/CCC2)=[N+](CCCCS(=O)(=O)O)c2ccc(S(=O)(=O)O)cc21 (centres unmarked) [Pam78]
early half-life of elimination from plasma [2]: 5.0 min
late half-life of elimination from plasma [2]: 15.4 min
time to asymptotic binding to HA ([3]; 1.5 mg/ml HA): ≤ 1 h
percent of peak binding to HA achieved ([3]; five minutes, 1.5 mg/ml (1.5 mM) HA, NK buffer): 37%
time at which uptake in spine, ribs, paws and knees is detected above background ([4]; 2.6 nmol intravenous): 15 min
time by which phalanges, wrist, skull, pelvis, femur and ankle become visible ([4]; 2.6 nmol intravenous): ≤ 3 h
stability in vivo (skeletal signal) ([4]; twelve hours post-injection): no degradation of skeletal signal
concentration in ribs (mean±S.E.M.) ([5]; caudal three ribs on each side, skinless animal, 2.6 nmol injected): 910 ± 27 nM
skeletal uptake, percentage of injected dose ([5]; out of 2.6 nmol injected): 57%
amount bound to the skeleton ([5]; out of 2.6 nmol injected, assuming bone density 1.8 g/cm^3, skeletal weight 11.8% body weight): 1.5 nmol
peak absorption ([6]; 1 μM in NK buffer): unchanged from IRDye78
peak emission ([6]; excitation fixed at 771 nm, NK buffer): 796 nm

SMILES: O.O.O=P([O-])([O-])CP(=O)([O-])[O-].[99Tc+4] [^99mTc-MDP]
skeletal uptake [7]: 52%
